From ChEMBL document CHEMBL1201862, “PubChem BioAssay data set” (2004)
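Where inhibition never reached the appropriate level, the endpoint shown equals the highest concentration tested. Otherwise, values were interpolated linearly from a five-concentration, 48-hour dose response in 96-well plates. GI50 is the concentration that inhibits growth by half.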 Active and inactive are the calls of the source. Cut-off read from the data, not from the text of the source: active = GI50 up to about 1.1 µM and inactive = higher.

What was measured:
Test in all cases: NCI anticancer screen, dose series, 48 h
786-0 = tested on: 786-0
EKVX = tested on: EKVX
HCT-15 = tested on: HCT-15
HOP-62 = tested on: HOP-62
HOP-92 = tested on: HOP-92
IGROV-1 = tested on: IGROV-1
K562 = tested on: K562
M14 = tested on: M14
NCI-H460 = tested on: NCI-H460
OVCAR-3 = tested on: OVCAR-3
OVCAR-4 = tested on: OVCAR-4
OVCAR-8 = tested on: OVCAR-8
SF-268 = tested on: SF-268
SN12C = tested on: SN12C
SNB-19 = tested on: SNB-19
SR = tested on: SR
TK-10 = tested on: TK-10
UO-31 = tested on: UO-31
RXF 393 = tested on: RXF 393
HL-60 = tested on: HL-60

Compound	GI50 (786-0)	GI50 (EKVX)	GI50 (HCT-15)	GI50 (HOP-62)	GI50 (HOP-92)	GI50 (IGROV-1)	GI50 (K562)	GI50 (M14)	GI50 (NCI-H460)	GI50 (OVCAR-3)	GI50 (OVCAR-4)	GI50 (OVCAR-8)	GI50 (SF-268)	GI50 (SN12C)	GI50 (SNB-19)	GI50 (SR)	GI50 (TK-10)	GI50 (UO-31)	GI50 (RXF 393)	GI50 (HL-60)
CC(C)c1nccn1Cc1ccc(Cl)cc1Cl	38 µM (inactive)	25.5 µM (inactive)	42.4 µM	66.7 µM (inactive)	37.8 µM (inactive)	> 100 µM (inactive)	79.1 µM (inactive)	38.1 µM (inactive)	34 µM (inactive)	27.2 µM (inactive)	52.5 µM (inactive)	46.2 µM (inactive)	76.9 µM (inactive)	26.5 µM (inactive)	48.5 µM (inactive)	44.4 µM (inactive)	37.6 µM (inactive)	24.9 µM (inactive)	–	–
CC1OC(=O)C(O)=C1O (stereo not given)	> 100 µM (inactive)	> 100 µM (inactive)	> 100 µM	> 100 µM (inactive)	> 100 µM (inactive)	> 100 µM (inactive)	> 100 µM (inactive)	> 100 µM (inactive)	> 100 µM (inactive)	> 100 µM (inactive)	> 100 µM (inactive)	> 100 µM (inactive)	47.2 µM (inactive)	> 100 µM (inactive)	> 100 µM (inactive)	> 100 µM (inactive)	> 100 µM (inactive)	> 100 µM (inactive)	> 100 µM (inactive)	–
Cc1ccc(S(=O)(=O)N(c2ccccc2F)C2CCCCC2O)cc1 (stereo not given)	65.6 µM (inactive)	35.1 µM (inactive)	55 µM	96.2 µM (inactive)	–	–	42.2 µM (inactive)	74.1 µM (inactive)	45.9 µM (inactive)	29.5 µM (inactive)	39.5 µM (inactive)	78 µM (inactive)	38 µM (inactive)	56.9 µM (inactive)	> 100 µM (inactive)	24.4 µM (inactive)	97.1 µM (inactive)	33.1 µM (inactive)	–	23.3 µM (inactive)
O=C1OC(c2ccccc2Br)=N/C1=C/c1ccccc1	–	> 100 µM (inactive)	29.9 µM	21.5 µM (inactive)	> 10 µM (inactive)	39.4 µM (inactive)	63 µM (inactive)	18.6 µM (inactive)	42.5 µM (inactive)	14.1 µM (inactive)	25.4 µM (inactive)	21.6 µM (inactive)	31.6 µM (inactive)	–	24.9 µM (inactive)	27 µM (inactive)	32.8 µM (inactive)	45.9 µM (inactive)	–	39 µM (inactive)
CC1NC(=O)C2=C1C(N)=NC(=O)C2 (stereo not given)	> 100 µM (inactive)	> 100 µM (inactive)	> 100 µM	–	> 100 µM (inactive)	> 100 µM (inactive)	> 100 µM (inactive)	> 100 µM (inactive)	> 100 µM (inactive)	> 100 µM (inactive)	> 100 µM (inactive)	> 100 µM (inactive)	> 100 µM (inactive)	> 100 µM (inactive)	> 100 µM (inactive)	> 100 µM (inactive)	> 100 µM (inactive)	> 100 µM (inactive)	> 100 µM (inactive)	–
Cc1ccc2oc(=O)c(-c3ccccc3)nc2c1	23.3 µM (inactive)	39.5 µM (inactive)	25.1 µM	36.7 µM (inactive)	–	–	24.3 µM (inactive)	43.3 µM (inactive)	36.3 µM (inactive)	46.5 µM (inactive)	23.8 µM (inactive)	36.4 µM (inactive)	25.2 µM (inactive)	31.8 µM (inactive)	38.9 µM (inactive)	29.5 µM (inactive)	34 µM (inactive)	27 µM (inactive)	–	> 10 µM (inactive)
CC1(C)C2CCC1(C)[C@H](O)[C@H]2Nc1cc(C(F)(F)F)cc(C(F)(F)F)c1 (stereo not given in full)	3.85 µM (inactive)	3.83 µM (inactive)	3.49 µM	5.48 µM (inactive)	–	4.74 µM (inactive)	2.79 µM (inactive)	4.06 µM (inactive)	3.71 µM (inactive)	2.24 µM (inactive)	5.12 µM (inactive)	3.21 µM (inactive)	3.14 µM (inactive)	–	4.48 µM (inactive)	2.95 µM (inactive)	3.15 µM (inactive)	3.51 µM (inactive)	2.85 µM (inactive)	–
COc1cccc(CCn2c(N)c(C#N)c3ccc([N+](=O)[O-])cc3c2=O)c1	> 46.5 µM (inactive)	> 31.6 µM (inactive)	> 31.6 µM	> 31.6 µM (inactive)	> 31.6 µM (inactive)	> 31.6 µM (inactive)	0.283 µM (active)	> 31.6 µM (inactive)	> 46.5 µM (inactive)	> 31.6 µM (inactive)	> 84.7 µM (inactive)	> 46.5 µM (inactive)	> 46.5 µM (inactive)	> 100 µM (inactive)	98.2 µM (inactive)	0.073 µM (active)	> 46.5 µM (inactive)	> 46.5 µM (inactive)	–	3.78 µM (inactive)
CC1=CCC2CC1C(C(=O)c1c[nH]c3ccccc13)=NC2(C)C (stereo not given)	81.1 µM (inactive)	33.3 µM (inactive)	45.2 µM	> 100 µM (inactive)	–	> 100 µM (inactive)	34 µM (inactive)	41.5 µM (inactive)	52.4 µM (inactive)	> 100 µM (inactive)	40.3 µM (inactive)	56.5 µM (inactive)	> 100 µM (inactive)	87.9 µM (inactive)	> 100 µM (inactive)	4.5 µM (inactive)	–	48.8 µM (inactive)	–	20.8 µM (inactive)
CCCc1[nH]c2ccccc2c1-c1c(CCC)[nH]c2ccccc12	15.5 µM (inactive)	16.8 µM (inactive)	3.62 µM	16.9 µM (inactive)	19.5 µM (inactive)	12 µM (inactive)	7.74 µM (inactive)	12.6 µM (inactive)	23.9 µM (inactive)	8.2 µM (inactive)	21.5 µM (inactive)	3.35 µM (inactive)	9.62 µM (inactive)	10.1 µM (inactive)	13.5 µM (inactive)	19 µM (inactive)	21.6 µM (inactive)	16.7 µM (inactive)	20 µM (inactive)	–
CC(Cc1ccc2c(c1)OCO2)N(C)C(=O)C1=CCN(C)CC1 (stereo not given)	> 100 µM (inactive)	> 100 µM (inactive)	> 100 µM	> 100 µM (inactive)	–	> 100 µM (inactive)	> 100 µM (inactive)	> 100 µM (inactive)	> 100 µM (inactive)	> 100 µM (inactive)	> 100 µM (inactive)	> 100 µM (inactive)	> 100 µM (inactive)	> 100 µM (inactive)	> 100 µM (inactive)	> 100 µM (inactive)	> 100 µM (inactive)	> 100 µM (inactive)	> 100 µM (inactive)	> 100 µM (inactive)
NC(=O)c1ccccc1NC(=O)C(=O)Nc1n[nH]c(N)n1	> 100 µM (inactive)	> 100 µM (inactive)	> 100 µM	> 100 µM (inactive)	–	> 100 µM (inactive)	> 100 µM (inactive)	> 100 µM (inactive)	> 100 µM (inactive)	> 100 µM (inactive)	> 100 µM (inactive)	> 100 µM (inactive)	–	> 100 µM (inactive)	> 100 µM (inactive)	> 100 µM (inactive)	> 100 µM (inactive)	> 100 µM (inactive)	> 100 µM (inactive)	> 100 µM (inactive)
Cc1nc2ccccc2cc1C[N+]12CN3CN(CN(C3)C1)C2	11.5 µM (inactive)	23.3 µM (inactive)	15.2 µM	24.5 µM (inactive)	45.2 µM (inactive)	31.4 µM (inactive)	29.2 µM (inactive)	18.5 µM (inactive)	18.2 µM (inactive)	28.1 µM (inactive)	22.3 µM (inactive)	30.3 µM (inactive)	22.7 µM (inactive)	18 µM (inactive)	23.8 µM (inactive)	19 µM (inactive)	24.9 µM (inactive)	23.6 µM (inactive)	16.6 µM (inactive)	–
COc1cc(/C=C\c2cccnc2)cc(OC)c1OC	67.9 µM (inactive)	38.1 µM (inactive)	39.4 µM	37.8 µM (inactive)	26 µM (inactive)	57.9 µM (inactive)	24.5 µM (inactive)	26.8 µM (inactive)	40.8 µM (inactive)	54 µM (inactive)	> 100 µM (inactive)	63.2 µM (inactive)	77.1 µM (inactive)	42.6 µM (inactive)	83.9 µM (inactive)	–	> 100 µM (inactive)	27.9 µM (inactive)	22.6 µM (inactive)	18.9 µM (inactive)
COc1ccc(-c2oc3cc(-c4cc5oc(-c6ccc(OC)cc6)c(-c6ccc(OC)cc6)c5cc4OC)c(OC)cc3c2-c2ccc(OC)cc2)cc1	> 100 µM (inactive)	> 100 µM (inactive)	> 100 µM	> 100 µM (inactive)	> 100 µM (inactive)	> 100 µM (inactive)	> 100 µM (inactive)	> 100 µM (inactive)	> 100 µM (inactive)	> 100 µM (inactive)	> 100 µM (inactive)	> 100 µM (inactive)	> 100 µM (inactive)	> 100 µM (inactive)	> 100 µM (inactive)	> 100 µM (inactive)	> 100 µM (inactive)	> 100 µM (inactive)	> 100 µM (inactive)	–
COc1ccc2c(c1)O[C@H]1c3ccc(O)cc3OC[C@@H]21	–	34 µM (inactive)	34.1 µM	45.5 µM (inactive)	–	17.5 µM (inactive)	30.1 µM (inactive)	19.2 µM (inactive)	35.1 µM (inactive)	29.2 µM (inactive)	34.6 µM (inactive)	36 µM (inactive)	28.1 µM (inactive)	38.8 µM (inactive)	68.1 µM (inactive)	14.3 µM (inactive)	35.3 µM (inactive)	20 µM (inactive)	19.3 µM (inactive)	18.1 µM (inactive)
